# From PMC9016803, “Mitochondria-targeted half-sandwich iridium(III)-Cp*-arylimidazophenanthroline complexes as antiproliferative and bioimaging agents against triple negative breast cancer cells MDA-MB-468” (RSC Advances, 2022)
# Assays:
# [1] = tested on: immortalized human keratinocyte cell line HaCaT; test: MTT in vitro cytotoxicity assay, normal cells; assay type: cell-based; details: 48 h
# Procedure: Consequently, the IrL1 complex doses of 1 μM, 3 μM and 5 μM were selected for further experimental analysis. Furthermore, the possible cytotoxic effects of IrL1 on normal cell line were also examined on the immortalized human keratinocyte cell line HaCaT.
# Cytotoxicity study of all the synthesized compounds against triple negative breast cancer cells MDA-MB-468 and immortalized human keratinocyte cell line HaCaT were done with a drug incubation period of 48 h by following standard procedure that were mentioned in ESI. ^† Preliminary studies were done to understand the mode of action of the complex to induce cytotoxicity using flow cytometric methods. […]
# (§1) In vitro cytotoxicity study was measured by standard MTT assay protocol.1 First the prepared complexes (IrL1-IrL5) were dissolved in 0.1% DMSO followed by dilution with DMEM medium. […] Then the resultant suspension was kept on micro vibrator for 10 min and the absorbance was recorded at λ = 570 nm in ELISA plate reader. […] The data were represented as the growth inhibition percentage i.e. % growth inhibition = 100 − [(AD × 100)/AB], where AD, measured absorbance in wells which contain samples and AB, measured absorbance for blank wells (cells with a medium and a vehicle). […]
# MDA-MB-468 cells = test: Cell cycle analysis; assay type: cell-based; details: 5 μM
# Procedure: The IrL1 complex exerted a G0/G1 cell cycle arrest at the highest tested concentration of 5 μM. The effects of various concentrations of IrL1 complex on the cell cycle of breast cancer cell line MDA-MB-468 cells were further explored by cell cycle analysis.
# [2] = Stability study by time-dependent UV-vis spectroscopy; assay type: physicochemical
# Procedure: The stability studies of complex IrL1 were conducted in […] different solvents, i.e. aqueous DMSO (H2O : DMSO = 9 : 1) and aqueous GSH medium (Fig. 3) respectively in presence or absence of different concentrations of NaCl. It is essential that the complexes remain stable in the biological environments of cells, and thus the stability studies were performed. […] It has been reported that many cancer cells become resistant to various drugs by increasing their cellular glutathione level.[28]
# For doing the cell culture the cells were retained in DMEM media (Gibco), added with 10% fetal bovine serum (Himedia, India), 1% penicillin and streptomycin and 1% of Glutmax (Gibco, Thermo Scientific, USA) at 37°C in 5% CO2. […]
# as §1
substance,measurement,setting,value
"[Iridium(III)-Cp*-2-(naphthalen-1-yl)-1H-imidazo[4,5-f][1,10]phenanthroline]PF6 [IrL1]",IC50,[1],11.4 µM
same,G0/G1 phase cells,MDA-MB-468 cells,53.32%
same,G2/M phase cells,MDA-MB-468 cells,~18.37%
same,S phase cells,MDA-MB-468 cells,~28.32%
same,decrease in absorbance,"[2]; aqueous DMSO (H2O : DMSO = 9 : 1), after 24 h",15–30%
same,effect of GSH on stability,"[2]; excess (10 eq.) glutathione, time-dependent UV spectroscopy",GSH didn't have much impact on the stability
